In US20250002455A1, “NEW N-PHENYLPYRROLAMIDE INHIBITORS OF DNA GYRASE AND TOPOISOMERASE IV WITH ANTIBACTERIAL ACTIVITY” (priority 2020, published 2025):
≈ marks a conversion by molar mass, not a printed value. Read-outs that look alike come from different tables or passages of the source.

Assays:
E. coli DNA gyrase = molecular target: T1, E. coli DNA gyrase (Escherichia coli, UniProt P0AES6); test: biochemical; settings: for IC50: read-out: IC50; for remaining activity at 1 µM: 1 μM compound
T1 construct: purchased Inspiralis
Method in brief: (§1)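 Triplex-capture format: plasmid bound to a biotinylated oligonucleotide on streptavidin plates after reaction at 37 °C for 30 min. The reaction was stopped with TF buffer (50 mM NaOAc pH 5.0, 50 mM NaCl, 50 mM MgCl2), and captured DNA was stained with SybrGOLD. IC50 values are the mean of three independent measurements.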

S. aureus DNA gyrase = molecular target: T2, S. aureus DNA gyrase (Staphylococcus aureus, UniProt P0A0K8); test: biochemical; settings: for IC50: read-out: IC50
T2 construct: purchased Inspiralis
Method in brief: as §1

E. coli topoisomerase IV = molecular target: T3, E. coli topoisomerase IV (Escherichia coli, UniProt P20083); test: biochemical; settings: for IC50: read-out: IC50; for remaining activity at 10 µM: 10 μM compound, read-out: RA (residual activity of the enzyme)
T3 construct: purchased Inspiralis
Method in brief: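 Supercoiling/relaxation read via biotin-oligonucleotide triplex capture on streptavidin plates; reactions 30 min at 37° C, stopped with TF buffer pH 5.0, plasmid stained with SybrGOLD.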

[1] = molecular target: T4, S. aureus topoisomerase IV (Staphylococcus aureus, UniProt P0C1S7); test: Topoisomerase IV inhibition assay (Inspiralis, streptavidin-coated plates); assay type: biochemical; settings: for remaining activity at 10 µM: 10 μM compound
T4 construct: purchased Inspiralis
Experimental: Inhibitory activities for compounds of the present invention were determined on E. coli and S. aureus DNA gyrase and topoisomerase IV in an assay from Inspiralis on streptavidin-coated 96-well microtiter plates from Thermo scientific Pierce. […] After washing off the unbound oligonucleotide, the enzyme test was performed. […] Reaction solutions were incubated at 37° C. for 30 min. After that, the TF buffer (50 mM NaOAc with pH 5.0, 50 mM NaCl and 50 mM MgCl2) was added to terminate the enzymatic reaction. After additional incubation for 30 min at rt, during which biotin-oligonucleotide-plasmid triplex was formed, the unbound plasmid was washed off using TF buffer and SybrGOLD in T10 buffer (10 mM Tris HCl with pH 8.0 and 1 mM EDTA) was added. […] Initial screening was done at 100 or 10 nM concentration of inhibitors against E. coli DNA gyrase or 1 μM or 100 nM concentration against S. aureus DNA gyrase and E. coli and S. aureus topo IV. […] GraphPad Prism 6.0 software was used to calculate the IC50 values. The result is given as the average value of three independent measurements. […] Chemoth.

[2] = system: A. baumannii (ATCC 19606); test: Microbroth dilution MIC (CLSI); assay type: cell-based; settings: Acinetobacter baumannii, ATCC19606
Method in brief: (§2)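 Antimicrobial activity was measured by broth microdilution following CLSI guidance for aerobic and anaerobic bacteria, with compounds serially diluted two-fold in 100% DMSO; the minimum inhibitory concentration was the lowest concentration preventing visible growth.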

E. coli ATCC 25922 = test: Microbroth dilution MIC (CLSI); assay type: cell-based; settings: Escherichia coli, ATCC25922
Method in brief: as §2

E. faecium (ATCC 35667) = test: Microbroth dilution MIC (CLSI); assay type: cell-based; settings: Enterococcus faecium, ATCC35667
Method in brief: as §2

[3] = system: K. pneumoniae (ATCC 700603); test: Microbroth dilution MIC (CLSI); assay type: cell-based; settings: Klebsiella pneumoniae, ATCC700603
Method in brief: as §2

P. aeruginosa ATCC 27853 = test: Microbroth dilution MIC (CLSI); assay type: cell-based; settings: Pseudomonas aeruginosa, ATCC27853
Method in brief: as §2

S. aureus ATCC 29213 = test: Microbroth dilution MIC (CLSI); assay type: cell-based; settings: Staphylococcus aureus, ATCC29213
Method in brief: as §2

[4] = system: E. aerogenes (ATCC 13408); test: Microbroth dilution MIC (CLSI); assay type: cell-based, Enterobacter aerogenes; settings: Klebsiella aerogenes, ATCC13408
Experimental: The chemical entities described in the present invention were assessed for their antimicrobial activity using a microbroth dilution assay as recommended by the CLSI (Methods for Dilution Antimicrobial Susceptibility Tests for Bacteria That Grow Aerobically, and Methods for Antimicrobial Susceptibility Testing of Anaerobic Bacteria, Clinical and Laboratory Standards Institute, Document M07-A8, and M11-A8, Wayne, PA 19087, USA, 2012.). Compounds were dissolved by using 100% DMSO. Serial two-fold dilutions of each compound were made by using 100% DMSO as the diluent.
A library of Gram-negative and Gram-positive microbes and their drug- and multidrug-resistant variants were employed as test organisms. The MIC (minimum inhibitory concentration) was determined as the lowest concentration of an individual drug that lead to no visible growth.

A. baumannii ATCC 17978 = test: Microbroth dilution MIC (CLSI); assay type: cell-based; settings: Acinetobacter baumannii, ATCC17978; A. baumannii ATCC 17978; read-out: MIC
Method in brief: as §2

E. faecium ATCC 700221 = test: Microbroth dilution MIC (CLSI); assay type: cell-based; settings: Enterococcus faecium, ATCC700221; E. faecium ATCC 700221; read-out: MIC
Method in brief: as §2

[5] = system: E. spp. cloacae ATCC 13047; test: Microbroth dilution MIC (CLSI); assay type: cell-based; settings: Enterobacter cloacae, ATCC13047; E. spp. cloacae ATCC 13047; read-out: MIC
Method in brief: as §2

K. pneumoniae ATCC 10031 = test: Microbroth dilution MIC (CLSI); assay type: cell-based; settings: Klebsiella pneumoniae, ATCC10031; K. pneumoniae ATCC 10031; read-out: MIC
Method in brief: as §2

[6] = system: S. aureus ATCC 43300 (MRSA); test: Microbroth dilution MIC (CLSI); assay type: cell-based; settings: Staphylococcus aureus; S. aureus ATCC 43300 (MRSA); read-out: MIC
Method in brief: as §2

E. faecalis ATCC 29212 = test: Microbroth dilution MIC (CLSI); assay type: cell-based; settings: Enterococcus faecalis, ATCC29212; E. faecalis ATCC 29212; read-out: MIC
Method in brief: as §2

[7] = system: S. aureus ATCC 700699 (VISA); test: Microbroth dilution MIC (CLSI); assay type: cell-based; settings: Staphylococcus aureus; S. aureus ATCC 700699 (VISA); read-out: MIC
Method in brief: as §2

[8] = S. aureus topo IV, read-out: IC50
[9] = A. baumannii (ATCC 19606), read-out: MIC
[10] = E. coli ATCC 25922, read-out: MIC
[11] = E. faecium (ATCC 35667), read-out: MIC
[12] = K. pneumoniae (ATCC 700603), read-out: MIC
[13] = P. aeruginosa ATCC 27853, read-out: MIC
[14] = S. aureus ATCC 29213, read-out: MIC
[15] = E. aerogenes (ATCC 13408), read-out: MIC
[16] = E. coli DNA gyrase, read-out: RA (residual activity of the enzyme)
[17] = S. aureus topo IV, read-out: RA (residual activity of the enzyme)

T2 sequence (P20831 whole entry): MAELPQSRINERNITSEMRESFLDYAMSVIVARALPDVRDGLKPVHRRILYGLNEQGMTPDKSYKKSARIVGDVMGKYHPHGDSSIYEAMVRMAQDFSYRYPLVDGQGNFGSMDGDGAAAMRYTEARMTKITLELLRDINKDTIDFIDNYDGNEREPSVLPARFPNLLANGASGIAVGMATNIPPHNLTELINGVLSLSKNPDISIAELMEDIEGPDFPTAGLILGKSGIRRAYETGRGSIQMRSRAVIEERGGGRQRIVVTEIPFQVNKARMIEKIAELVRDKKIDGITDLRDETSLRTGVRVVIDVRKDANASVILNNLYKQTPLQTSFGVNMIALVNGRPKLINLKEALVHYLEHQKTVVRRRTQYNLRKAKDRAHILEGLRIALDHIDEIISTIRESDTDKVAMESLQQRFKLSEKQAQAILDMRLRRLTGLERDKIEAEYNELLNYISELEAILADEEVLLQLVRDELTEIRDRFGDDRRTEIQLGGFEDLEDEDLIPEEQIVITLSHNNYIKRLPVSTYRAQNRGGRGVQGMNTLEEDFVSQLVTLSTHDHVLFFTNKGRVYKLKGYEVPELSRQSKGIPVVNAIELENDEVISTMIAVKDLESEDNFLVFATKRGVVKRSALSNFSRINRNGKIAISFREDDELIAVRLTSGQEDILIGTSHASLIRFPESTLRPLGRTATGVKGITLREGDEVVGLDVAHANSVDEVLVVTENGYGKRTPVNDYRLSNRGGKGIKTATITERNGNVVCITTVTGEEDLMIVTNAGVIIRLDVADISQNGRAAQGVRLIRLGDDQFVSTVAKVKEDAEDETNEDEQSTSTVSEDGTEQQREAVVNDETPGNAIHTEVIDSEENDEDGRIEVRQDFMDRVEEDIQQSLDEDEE
T2 sequence (P0A0K8 whole entry): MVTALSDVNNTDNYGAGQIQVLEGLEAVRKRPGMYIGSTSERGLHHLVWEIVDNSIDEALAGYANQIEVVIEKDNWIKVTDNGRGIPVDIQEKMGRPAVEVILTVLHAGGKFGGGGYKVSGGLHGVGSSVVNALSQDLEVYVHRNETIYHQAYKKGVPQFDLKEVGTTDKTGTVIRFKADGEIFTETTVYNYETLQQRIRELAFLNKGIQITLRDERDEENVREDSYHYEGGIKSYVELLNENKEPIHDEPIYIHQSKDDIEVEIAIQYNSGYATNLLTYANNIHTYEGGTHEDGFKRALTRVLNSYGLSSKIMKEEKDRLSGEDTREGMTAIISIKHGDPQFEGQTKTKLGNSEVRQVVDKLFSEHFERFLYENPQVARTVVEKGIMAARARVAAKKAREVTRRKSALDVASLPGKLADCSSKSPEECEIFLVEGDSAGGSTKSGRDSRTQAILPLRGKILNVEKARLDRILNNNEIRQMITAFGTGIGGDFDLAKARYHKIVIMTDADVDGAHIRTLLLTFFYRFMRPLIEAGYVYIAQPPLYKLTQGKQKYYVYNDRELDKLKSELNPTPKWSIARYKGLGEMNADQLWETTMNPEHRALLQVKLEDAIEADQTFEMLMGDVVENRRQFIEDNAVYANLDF
T4 sequence (P0C1U9 whole entry): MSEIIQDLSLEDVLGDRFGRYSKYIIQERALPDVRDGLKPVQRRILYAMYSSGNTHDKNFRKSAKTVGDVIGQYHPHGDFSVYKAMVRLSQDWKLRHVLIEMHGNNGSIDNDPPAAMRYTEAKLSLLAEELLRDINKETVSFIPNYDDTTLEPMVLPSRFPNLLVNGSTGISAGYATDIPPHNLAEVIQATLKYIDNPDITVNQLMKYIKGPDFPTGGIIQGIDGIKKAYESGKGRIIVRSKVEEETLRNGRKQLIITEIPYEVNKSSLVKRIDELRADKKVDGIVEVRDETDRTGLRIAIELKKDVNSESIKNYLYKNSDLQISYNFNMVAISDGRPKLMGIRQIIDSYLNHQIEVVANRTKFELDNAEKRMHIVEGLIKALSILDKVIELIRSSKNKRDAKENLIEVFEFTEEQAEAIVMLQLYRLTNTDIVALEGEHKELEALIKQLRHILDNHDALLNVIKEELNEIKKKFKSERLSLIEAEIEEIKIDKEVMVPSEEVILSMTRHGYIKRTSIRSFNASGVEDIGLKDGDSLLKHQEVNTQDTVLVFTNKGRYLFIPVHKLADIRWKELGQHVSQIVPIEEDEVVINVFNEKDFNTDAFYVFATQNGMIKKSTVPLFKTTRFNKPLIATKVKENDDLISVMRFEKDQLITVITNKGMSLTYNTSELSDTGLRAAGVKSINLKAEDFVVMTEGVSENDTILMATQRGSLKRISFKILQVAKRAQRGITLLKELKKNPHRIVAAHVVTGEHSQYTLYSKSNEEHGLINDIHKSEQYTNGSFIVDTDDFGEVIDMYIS
T4 sequence (P0C1S7 whole entry): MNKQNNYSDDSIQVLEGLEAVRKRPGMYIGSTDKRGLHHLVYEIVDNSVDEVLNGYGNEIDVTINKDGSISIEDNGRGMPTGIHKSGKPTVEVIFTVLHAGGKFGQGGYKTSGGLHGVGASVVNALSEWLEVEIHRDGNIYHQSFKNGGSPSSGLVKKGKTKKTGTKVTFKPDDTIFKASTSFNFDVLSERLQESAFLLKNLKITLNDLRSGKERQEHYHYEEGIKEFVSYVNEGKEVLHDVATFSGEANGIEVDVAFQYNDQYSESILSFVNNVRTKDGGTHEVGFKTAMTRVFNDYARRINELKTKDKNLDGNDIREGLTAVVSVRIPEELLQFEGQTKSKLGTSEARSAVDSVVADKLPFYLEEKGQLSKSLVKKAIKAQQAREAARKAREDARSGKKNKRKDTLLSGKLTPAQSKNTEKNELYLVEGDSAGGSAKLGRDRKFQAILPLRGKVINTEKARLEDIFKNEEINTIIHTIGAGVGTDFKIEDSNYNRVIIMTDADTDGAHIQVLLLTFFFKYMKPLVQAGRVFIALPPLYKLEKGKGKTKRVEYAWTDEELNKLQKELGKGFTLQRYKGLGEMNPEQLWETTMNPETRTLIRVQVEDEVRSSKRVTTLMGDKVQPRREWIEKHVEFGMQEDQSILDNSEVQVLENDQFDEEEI
T3 sequence (P0AFI2 whole entry): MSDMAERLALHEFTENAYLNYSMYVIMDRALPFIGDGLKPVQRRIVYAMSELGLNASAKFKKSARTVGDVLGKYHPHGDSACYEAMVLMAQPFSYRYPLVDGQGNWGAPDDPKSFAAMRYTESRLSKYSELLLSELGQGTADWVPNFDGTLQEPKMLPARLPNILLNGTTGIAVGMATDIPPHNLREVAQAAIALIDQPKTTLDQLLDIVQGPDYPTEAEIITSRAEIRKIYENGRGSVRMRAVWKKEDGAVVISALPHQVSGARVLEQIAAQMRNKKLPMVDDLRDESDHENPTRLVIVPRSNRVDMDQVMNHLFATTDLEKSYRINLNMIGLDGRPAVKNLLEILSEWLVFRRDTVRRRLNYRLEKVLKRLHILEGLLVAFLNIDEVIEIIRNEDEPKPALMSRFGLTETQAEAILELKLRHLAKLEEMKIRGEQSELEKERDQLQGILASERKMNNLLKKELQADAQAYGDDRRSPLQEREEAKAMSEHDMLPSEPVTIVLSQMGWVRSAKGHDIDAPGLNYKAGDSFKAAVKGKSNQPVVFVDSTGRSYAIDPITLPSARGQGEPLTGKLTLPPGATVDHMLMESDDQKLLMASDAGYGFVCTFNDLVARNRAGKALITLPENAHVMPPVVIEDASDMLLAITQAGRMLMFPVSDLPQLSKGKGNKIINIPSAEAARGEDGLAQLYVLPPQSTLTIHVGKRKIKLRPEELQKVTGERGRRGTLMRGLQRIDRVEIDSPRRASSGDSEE
T3 sequence (P20083 whole entry): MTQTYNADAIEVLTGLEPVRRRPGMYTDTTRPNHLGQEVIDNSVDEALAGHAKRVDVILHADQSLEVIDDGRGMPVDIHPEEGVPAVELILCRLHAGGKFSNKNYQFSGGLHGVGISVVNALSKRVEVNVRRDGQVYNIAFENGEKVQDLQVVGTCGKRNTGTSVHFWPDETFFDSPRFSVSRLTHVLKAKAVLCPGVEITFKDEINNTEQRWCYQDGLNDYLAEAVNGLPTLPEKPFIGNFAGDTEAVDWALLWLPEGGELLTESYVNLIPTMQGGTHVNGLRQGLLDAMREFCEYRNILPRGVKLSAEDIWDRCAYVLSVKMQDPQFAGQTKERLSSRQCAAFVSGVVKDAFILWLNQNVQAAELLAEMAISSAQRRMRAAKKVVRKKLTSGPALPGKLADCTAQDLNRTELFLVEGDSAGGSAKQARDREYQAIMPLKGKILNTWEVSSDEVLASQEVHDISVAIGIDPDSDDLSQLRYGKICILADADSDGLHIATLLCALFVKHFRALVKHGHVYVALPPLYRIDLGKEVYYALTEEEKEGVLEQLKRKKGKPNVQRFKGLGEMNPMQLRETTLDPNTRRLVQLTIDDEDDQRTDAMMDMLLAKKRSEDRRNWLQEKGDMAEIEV

| Structure (SMILES) | IC50 (E. coli DNA gyrase; E. coli DNA gyrase) [nM] | MIC [2, 9] [µg/mL] | MIC (E. coli ATCC 25922; [10]) [µg/mL] | MIC (E. faecium (ATCC 35667); [11]) [µg/mL] | MIC [3, 12] [µg/mL] | MIC (P. aeruginosa ATCC 27853; [13]) [µg/mL] | MIC (S. aureus ATCC 29213; [14]) [µg/mL] | MIC [4, 15] [µg/mL] | remaining activity at 1 µM (E. coli DNA gyrase; [16]) [%] | also measured |
| --- | --- | --- | --- | --- | --- | --- | --- | --- | --- | --- |
| Cc1[nH]c(C(=O)Nc2ccc(C(=O)NCc3n[nH]c(=O)o3)cc2N2CCNCC2)c(Cl)c1Cl.Cl [Example 40, 4-(2-(3,4-Dichloro-5-methyl-1H-pyrrole-2-carboxamido)-5-(((5-oxo-4,5-dihydro-1,3,4-oxadiazol-2-yl)methyl)carbamoyl)phenyl)piperazin-1-ium chloride] | 22.4 | ≥ 64 | ≥ 64 | ≥ 64 | ≥ 64 | ≥ 64 | ≥ 64 | ≥ 64 | – | remaining activity at 1 µM (S. aureus DNA gyrase; S. aureus DNA gyrase, 1 μM compound, read-out: RA (residual activity of the enzyme)): 37%; IC50 (E. coli topoisomerase IV; E. coli topo IV): 2970 nM; IC50 [1, 8]: 2700 nM |
| Cc1[nH]c(C(=O)Nc2ccc(C(=O)O)cc2N2CCNCC2)c(Cl)c1Cl [Example 12, 4-(5-Carboxy-2-(3,4-dichloro-5-methyl-1H-pyrrole-2-carboxamido)phenyl)piperazin-1-ium chloride] | – | – | ≥ 64 | – | – | ≥ 64 | ≥ 64 | – | 67 | remaining activity at 10 µM (E. coli topoisomerase IV; E. coli topo IV): -18%; remaining activity at 10 µM [1, 17]: -17%; MIC [2]: ≥ 64 µg/mL; MIC (E. faecium (ATCC 35667)): ≥ 64 µg/mL; MIC [3]: ≥ 64 µg/mL; MIC [4]: ≥ 64 µg/mL |
| Cl.O=C(O)CNC(=O)c1ccc(NC(=O)c2cc(Br)c(Br)[nH]2)c(N2CCNCC2)c1 [Example 39, 4-(5-((Carboxymethyl)carbamoyl)-2-(4,5-dibromo-1H-pyrrole-2-carboxamido)phenyl)piperazin-1-ium chloride] | 841 | ≥ 64 | ≥ 64 | ≥ 64 | ≥ 64 | ≥ 64 | ≥ 64 | ≥ 64 | – | remaining activity at 10 µM (E. coli topoisomerase IV; E. coli topo IV): 97%; remaining activity at 10 µM [1, 17]: 73% |
| Cc1[nH]c(C(=O)Nc2ccc(-c3nnn[nH]3)cc2N2CCOCC2)c(Cl)c1Cl [Example 10, 3,4-Dichloro-5-methyl-N-(2-morpholino-4-(2H-tetrazol-5-yl)phenyl)-1H-pyrrole-2-carboxamide] | 44.5 | ≥ 64 | ≥ 64 | 10 (≈ 23.7 µM) | ≥ 64 | ≥ 64 | ≥ 64 | ≥ 64 | – | remaining activity at 0.1 µM ([1]; S. aureus topo IV, 0.1 μM compound, read-out: RA (residual activity of the enzyme)): 101%; remaining activity at 1 µM ([1]; S. aureus topo IV, 1 μM compound, read-out: RA (residual activity of the enzyme)): 7%; MIC (A. baumannii ATCC 17978): ≥ 64 µg/mL; MIC (E. faecium ATCC 700221): ≥ 64 µg/mL; MIC [5]: ≥ 64 µg/mL; MIC (K. pneumoniae ATCC 10031): ≥ 64 µg/mL; MIC [6]: ≥ 64 µg/mL |
| Cc1[nH]c(C(=O)Nc2ccc(C(=O)NCC(=O)O)cc2N2CC[C@@H](N)C2)c(Cl)c1Cl [Example 34, (R)-1-(5-((Carboxymethyl)carbamoyl)-2-(3,4-dichloro-5-methyl-1H-pyrrole-2-carboxamido)phenyl)pyrrolidin-3-aminium chloride] | – | – | – | – | – | – | – | – | – | IC50 (E. coli DNA gyrase): 21.3 nM; IC50 (S. aureus DNA gyrase): 1240 nM; IC50 (E. coli topoisomerase IV): 2370 nM; IC50 [1, 8]: 2030 nM; MIC [2]: ≥ 64 µg/mL; MIC (E. coli ATCC 25922): ≥ 64 µg/mL; MIC (E. faecium (ATCC 35667)): ≥ 64 µg/mL; MIC [3]: ≥ 64 µg/mL; MIC (P. aeruginosa ATCC 27853): ≥ 64 µg/mL; MIC (S. aureus ATCC 29213): ≥ 64 µg/mL; MIC [4]: ≥ 64 µg/mL |
| Cc1[nH]c(C(=O)Nc2ccc(-n3nn[nH]c3=O)cc2N2CCC(N)CC2)c(Cl)c1Cl.Cl [Example 23, 1-(2-(3,4-Dichloro-5-methyl-1H-pyrrole-2-carboxamido)-5-(5-oxo-4,5-dihydro-1H-tetrazol-1-yl)phenyl)piperidin-4-aminium chloride] | 3.96 | – | ≥ 32 | – | – | ≥ 32 | ≥ 32 | – | – | IC50 (S. aureus DNA gyrase; S. aureus DNA gyrase): 216 nM; IC50 (E. coli topoisomerase IV; E. coli topo IV): 11500 nM; IC50 [1]: 6200 nM; MIC (A. baumannii ATCC 17978): ≥ 32 µg/mL; MIC (E. faecalis ATCC 29212): ≥ 32 µg/mL; MIC (E. faecium ATCC 700221): ≥ 32 µg/mL; MIC [5]: ≥ 32 µg/mL; MIC (K. pneumoniae ATCC 10031): ≥ 32 µg/mL; MIC [6]: ≥ 32 µg/mL; MIC [7]: ≥ 32 µg/mL |
| Cc1nnc(-c2ccc(NC(=O)c3[nH]c(C)c(Cl)c3Cl)c(OC(C)C)c2)o1 [Example 21, 3,4-Dichloro-N-(2-isopropoxy-4-(5-methyl-1,3,4-oxadiazol-2-yl)phenyl)-5-methyl-1H-pyrrole-2-carboxamide] | – | ≥ 64 | ≥ 64 | ≥ 64 | ≥ 64 | ≥ 64 | ≥ 64 | ≥ 64 | 95 | – |
| Cc1[nH]c(C(=O)Nc2ccc(C(=O)O)cc2N2CCC[C@H](N)C2)c(Cl)c1Cl.Cl [Example 14, (S)-1-(5-carboxy-2-(3,4-dichloro-5-methyl-1H-pyrrole-2-carboxamido)phenyl)piperidin-3-aminium chloride] | – | ≥ 64 | ≥ 64 | ≥ 64 | ≥ 64 | ≥ 64 | ≥ 64 | ≥ 64 | -2 | remaining activity at 0.1 µM (E. coli DNA gyrase; E. coli DNA gyrase, 0.1 μM compound, read-out: RA (residual activity of the enzyme)): 52% |
| Cl.N[C@@H]1CCN(c2cc(C(=O)NCC(=O)O)ccc2NC(=O)c2cc(Br)c(Br)[nH]2)C1 [Example 37, (R)-1-(5-((Carboxymethyl)carbamoyl)-2-(4,5-dibromo-1H-pyrrole-2-carboxamido)phenyl)pyrrolidin-3-aminium chloride] | 2380 | ≥ 64 | ≥ 64 | ≥ 64 | ≥ 64 | ≥ 64 | ≥ 64 | ≥ 64 | – | remaining activity at 10 µM (S. aureus DNA gyrase; S. aureus DNA gyrase, 10 μM compound, read-out: RA (residual activity of the enzyme)): 78% |
